# Data: patent publication US20250312497A1, “METHOD OF TREATING PROSTATE CANCER” (Novartis AG, priority 2022, published 2025)
# “And” between values parts separate entries of the source, which are not always exact repeats. Identical values can stand only once. Like-named read-outs stand apart in the source and are kept apart here.
# What was measured:
# [1] = tested on: PSMA-positive metastatic castration-resistant prostate cancer (mCRPC); experiment: PSMAfore phase III: best overall radiological response (soft tissue and bone) by BICR; assay type: in vivo, human; conditions: results update
# Method: Best overall radiological response accounting for soft tissue and bone disease based on BICR (Recist analysis set—participants with measurable disease at baseline)
# Responses are based on soft tissue assessment and bone lesion progression. Best overall responses of CR and PR were confirmed by repeat assessments that were performed not less than 4 weeks after the criteria for response were first met.
# CR may include participants with residual but non-progressive bone disease.
# [2] = tested on: PSMA-positive mCRPC participants; experiment: PSMAfore phase III: patient disposition, treatment discontinuation; assay type: in vivo, human
# Source text: Patient disposition (Full analysis set)
# [3] = tested on: PSMA-positive metastatic castration-resistant prostate cancer (mCRPC); experiment: PSMAfore phase III: radiographic progression-free survival (rPFS) by blinded independent central review per PCWG3; assay type: in vivo, human
# [4] = tested on: castrate-resistant metastatic prostate cancer; conditions: cited from earlier work
# [5] = tested on: PSMA-positive metastatic castration-resistant prostate cancer (mCRPC); experiment: PSMAfore phase III: overall survival (OS), interim analysis; assay type: in vivo, human; conditions: first interim analysis DCO 2 Oct 2022
# Method: After radiographic progression, follow up for survival will continue.
# OS is hierarchically tested based on a three-look group sequential design using a Lan DeMets (O'Brien Flemming) alpha spending function. The final OS analysis was not planned to be performed at the time of the interim rPFS analysis, which is reported in this FIR.
# Following the hierarchical testing strategy defined in the study protocol, OS was tested once rPFS was statistically significant. The one-sided alpha level (<0.000000001012) required for a significant OS difference in this first interim analysis was calculated from the pre-specified alpha spending function and the number of events observed at the time of rPFS analysis.
# Results in terms of the OS at the time of the first interim OS analysis are based on 13.5% (40/297 deaths).
# The second interim analysis for OS is planned after additional follow up when approximately 75% (223/297) of the targeted number of deaths/events have occurred. If OS is not statistically significant at the second interim analysis, a final analysis is planned when approximately 297 deaths have been recorded.
# [6] = Recist analysis set, measurable disease at baseline, BICR
# [7] = DCO 21 Jun 2023, full analysis set
smiles,measurement,setting,value
"O=C([O-])CN1CCN(CC(=O)[O-])CCN(CC(=O)NCC2CCC(C(=O)N[C@@H](Cc3ccc4ccccc4c3)C(=O)NCCCC[C@H](NC(=O)N[C@@H](CCC(=O)O)C(=O)O)C(=O)O)CC2)CCN(CC(=O)[O-])CC1.[177Lu+3] (stereo partly shown) [[177Lu]Lu-PSMA-617, lutetium (177Lu) vipivotide tetraxetan]",Best overall response: Complete response (CR),[1]; [6],15 (21.1) n (%)
same,Best overall response: Partial response (PR),[1]; [6],20 (28.2) n (%)
same,Best overall response: Progressive disease (PD),[1]; [6],14 (19.7) n (%)
same,Best overall response: Unknown (UNK),[1]; [6],2 (2.8) n (%)
same,Disease Control Rate (DCR: CR + PR + SD),[1]; [6],55 (77.5) n (%)
same,Overall Response Rate (ORR: CR + PR),[1]; [6],35 (49.3) n (%)
same,rDCR compared to ARDT,[1],a higher rDCR compared to ARDT
same,rORR compared to ARDT,[1],at least three times higher rORR compared to ARDT
same,treatment discontinuation due to adverse event,[2]; DCO 2 Oct 2022,3.9%
same,Reason for discontinuation: Adverse event,"[2]; DCO 2 Oct 2022, full analysis set",9 (3.9) n (%)
same,treatment discontinuation due to adverse event,[2]; DCO 21 Jun 2023,5.6%
same,rPFS events: Death without radiographic progression,[3]; [7],10 (4.3) n(%)
same,rPFS events: Radiographic progression,[3]; [7],105 (44.9) n(%)
same,rPFS: Number of events,[3]; [7],115 (49.1%) n(%) and 115 (49.1) n(%)
same,risk reduction (rPFS) compared to ARDT arm,[3]; updated exploratory analysis DCO 21 Jun 2023,57%
same,participants with PSA decline >50%,"[4]; 10 participants, 5.6 GBq/150 mCi",50%
same,participants with PSA decline >50%,[4]; after 2 cycles of 6 GBq/160 mCi,60%
same,median OS (95% CI),[5]; Kaplan-Meier,"NE [12.16, NE]"
same,OS: Number of events,[5]; full analysis set,20 (8.6) n(%)
